This note sets out measurements from ChEMBL document CHEMBL1142028, “(E)-Phenyl- and -heteroaryl-substituted O-benzoyl-(or acyl)oximes as lipoprotein-associated phospholipase A2 inhibitors” (Bioorg Med Chem Lett, 2005).

The target in the test is T1, Platelet-activating factor acetylhydrolase (Homo sapiens, UniProt Q13093).
T1 sequence (Q13093 whole entry): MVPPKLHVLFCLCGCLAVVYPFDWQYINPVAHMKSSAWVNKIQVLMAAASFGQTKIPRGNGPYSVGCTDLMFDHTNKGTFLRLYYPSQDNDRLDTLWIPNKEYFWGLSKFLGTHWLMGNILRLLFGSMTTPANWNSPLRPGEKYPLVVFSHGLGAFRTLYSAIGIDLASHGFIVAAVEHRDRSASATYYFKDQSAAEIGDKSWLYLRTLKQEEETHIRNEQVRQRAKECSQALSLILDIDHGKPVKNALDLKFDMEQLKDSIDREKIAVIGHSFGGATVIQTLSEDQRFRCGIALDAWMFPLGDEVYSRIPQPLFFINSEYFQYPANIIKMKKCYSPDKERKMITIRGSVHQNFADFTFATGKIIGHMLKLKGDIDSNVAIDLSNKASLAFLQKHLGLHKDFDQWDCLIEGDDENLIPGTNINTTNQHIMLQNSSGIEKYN
The test can be described thus: In vitro inhibitory activity against human lipoprotein-associated phospholipase A2; NA - not active.

The structures appear in SMILES notation.

With `O=C(ON=C(c1ccccc1)c1ccccc1)c1ccccc1` [(DIPHENYLMETHYLIDENE)AMINO BENZOATE], the IC50 entry is “Not Active”.
